These are literature values, as cited in patent EP1136875A2, “Small 3D emulsions with enhanced photographic response” (EASTMAN KODAK COMPANY, priority 2000, dated 2001).

For this data set the following is noted: value is for the conjugate acid of the printed base.
On to `C[N+](C)(C)[O-]` [(CH3)3N^+–O^-], for which the “pKa's in water of the conjugate acids of some useful bases” value (“pKa's in water” for short) is listed as 4.65.

On to `CC(=O)S` [CH3–COS^-], for which the “pKa's in water” value is 3.33.

Turning to `CC(=O)NCC(=O)O` [CH3–CO–NH–CH2–CO2^-], the “pKa's in water” value is on record as 3.67.
